Measurements from article PMC7180948, “New Insights into 4-Anilinoquinazolines as Inhibitors of Cardiac Troponin I–Interacting Kinase (TNNi3K)” (Molecules, 2020).

Assays:
Experiment in all cases: biochemical
Design in all cases: KINOMEscan competition binding panel (Eurofins DiscoverX), single concentration, percent inhibition
Conditions in all cases: read-out: 15 at 1 µM % inhibition
PKMYT1 = PKMYT1 (Homo sapiens, UniProt Q99640)
Procedure, shortened: (§1)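 Compounds were submitted at 1 µM to a KINOMEscan assay covering more than 400 human kinases. The screen served to define the selectivity profile.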

[1] = biological target: T1, ABL1(Q252H)-phosphorylated (Homo sapiens, UniProt P00519, Q252H)
T1 construct: phosphorylated
Procedure, shortened: as §1

PFTK1 = biological target: T2, PFTK1 (Homo sapiens, UniProt O94921)
T2 construct: gene CDK14
T2 sequence (O94921 whole entry): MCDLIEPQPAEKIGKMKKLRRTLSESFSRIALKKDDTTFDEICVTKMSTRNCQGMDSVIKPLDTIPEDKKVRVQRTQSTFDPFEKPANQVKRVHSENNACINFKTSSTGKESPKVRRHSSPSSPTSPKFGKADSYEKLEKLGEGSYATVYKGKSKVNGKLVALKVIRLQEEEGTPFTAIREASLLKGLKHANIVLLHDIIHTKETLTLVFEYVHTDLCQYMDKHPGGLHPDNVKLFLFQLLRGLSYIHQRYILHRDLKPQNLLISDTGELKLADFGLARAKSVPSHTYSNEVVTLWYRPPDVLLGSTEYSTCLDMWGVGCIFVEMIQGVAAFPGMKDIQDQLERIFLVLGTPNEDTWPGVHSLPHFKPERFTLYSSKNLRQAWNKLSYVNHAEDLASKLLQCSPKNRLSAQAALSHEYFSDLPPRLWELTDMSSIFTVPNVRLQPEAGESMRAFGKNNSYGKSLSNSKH
Procedure, shortened: as §1

TRPM6 = TRPM6 (Homo sapiens, UniProt Q9BX84)
Procedure, shortened: as §1

IKK-epsilon = biological target: T3, IKK-epsilon (Homo sapiens, UniProt Q14164)
T3 construct: gene IKBKE
Procedure, shortened: as §1

CIT = CIT (Homo sapiens, UniProt O14578)
Procedure, shortened: as §1

WNK1 = WNK1 (Homo sapiens, UniProt Q9H4A3)
Procedure, shortened: as §1

DAPK2 = DAPK2 (Homo sapiens, UniProt Q9UIK4)
Procedure, shortened: as §1

FRK = FRK (Homo sapiens, UniProt P42685)
Chain of FRK (P42685 whole entry): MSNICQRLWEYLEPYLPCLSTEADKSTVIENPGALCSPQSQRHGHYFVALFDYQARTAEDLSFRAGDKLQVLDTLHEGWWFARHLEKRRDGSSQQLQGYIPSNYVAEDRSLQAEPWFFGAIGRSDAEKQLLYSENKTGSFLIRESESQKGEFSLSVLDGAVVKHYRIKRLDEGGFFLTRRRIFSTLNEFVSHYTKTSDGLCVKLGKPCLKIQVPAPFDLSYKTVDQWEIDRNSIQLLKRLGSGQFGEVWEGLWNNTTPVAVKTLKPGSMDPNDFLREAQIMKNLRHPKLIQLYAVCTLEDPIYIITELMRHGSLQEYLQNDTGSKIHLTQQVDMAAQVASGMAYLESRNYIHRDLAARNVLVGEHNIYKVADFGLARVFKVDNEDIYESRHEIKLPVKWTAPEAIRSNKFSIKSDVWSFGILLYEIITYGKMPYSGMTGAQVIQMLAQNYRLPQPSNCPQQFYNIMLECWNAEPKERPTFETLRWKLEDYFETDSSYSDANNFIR
Procedure, shortened: as §1

CSF1R-autoinhibited = CSF1R-autoinhibited (Homo sapiens, UniProt P07333)
Chain of CSF1R-autoinhibited (P07333 whole entry): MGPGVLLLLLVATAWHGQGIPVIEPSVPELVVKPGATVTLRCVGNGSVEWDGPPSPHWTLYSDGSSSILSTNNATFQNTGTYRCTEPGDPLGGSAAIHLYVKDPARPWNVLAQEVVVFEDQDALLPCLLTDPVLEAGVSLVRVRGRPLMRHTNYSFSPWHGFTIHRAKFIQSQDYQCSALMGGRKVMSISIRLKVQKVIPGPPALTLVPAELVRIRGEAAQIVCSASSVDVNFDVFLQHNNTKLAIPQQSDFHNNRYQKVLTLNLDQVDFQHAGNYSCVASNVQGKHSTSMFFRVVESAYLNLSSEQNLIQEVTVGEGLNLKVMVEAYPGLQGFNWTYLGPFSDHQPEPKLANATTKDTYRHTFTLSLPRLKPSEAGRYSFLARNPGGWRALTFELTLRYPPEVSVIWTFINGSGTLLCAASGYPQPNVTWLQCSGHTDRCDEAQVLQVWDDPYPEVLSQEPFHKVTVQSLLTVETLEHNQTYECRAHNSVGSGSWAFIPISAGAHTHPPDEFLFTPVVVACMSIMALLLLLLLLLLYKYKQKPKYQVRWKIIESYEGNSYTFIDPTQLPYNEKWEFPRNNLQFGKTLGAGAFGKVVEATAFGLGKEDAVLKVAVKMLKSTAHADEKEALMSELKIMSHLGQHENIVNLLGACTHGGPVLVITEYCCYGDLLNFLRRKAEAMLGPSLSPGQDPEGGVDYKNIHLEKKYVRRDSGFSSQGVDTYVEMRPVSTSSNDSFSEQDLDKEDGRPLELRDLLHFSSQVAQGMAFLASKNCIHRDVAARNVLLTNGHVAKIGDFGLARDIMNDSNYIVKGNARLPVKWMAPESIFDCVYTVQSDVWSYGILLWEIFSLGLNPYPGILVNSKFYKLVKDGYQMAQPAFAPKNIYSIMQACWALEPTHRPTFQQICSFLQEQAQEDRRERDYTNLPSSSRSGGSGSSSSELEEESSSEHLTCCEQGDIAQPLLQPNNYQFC
Procedure, shortened: as §1

CDK11 = biological target: T4, CDK11 (Homo sapiens, UniProt Q9BWU1)
T4 construct: gene CDK19
T4 sequence (Q9BWU1 whole entry): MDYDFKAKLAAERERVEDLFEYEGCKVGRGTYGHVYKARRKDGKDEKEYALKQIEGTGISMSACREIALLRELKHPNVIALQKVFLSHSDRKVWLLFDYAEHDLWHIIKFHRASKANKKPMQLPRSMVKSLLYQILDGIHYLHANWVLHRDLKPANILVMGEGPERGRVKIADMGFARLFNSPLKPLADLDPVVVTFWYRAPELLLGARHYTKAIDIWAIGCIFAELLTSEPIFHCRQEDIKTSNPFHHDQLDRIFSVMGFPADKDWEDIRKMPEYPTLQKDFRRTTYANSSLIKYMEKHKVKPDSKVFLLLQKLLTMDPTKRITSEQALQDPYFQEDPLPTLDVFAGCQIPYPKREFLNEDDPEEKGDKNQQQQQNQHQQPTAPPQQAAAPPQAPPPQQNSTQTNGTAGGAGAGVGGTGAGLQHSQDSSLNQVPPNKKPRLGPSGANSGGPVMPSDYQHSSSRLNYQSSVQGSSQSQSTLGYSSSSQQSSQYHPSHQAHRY
Procedure, shortened: as §1

LZK = biological target: T5, LZK (Homo sapiens, UniProt O43283)
T5 construct: gene MAP3K13
Procedure, shortened: as §1

PRKD2 = PRKD2 (Homo sapiens, UniProt Q9BZL6)
Procedure, shortened: as §1

p38-beta = biological target: T6, p38-beta (Homo sapiens, UniProt Q15759)
T6 construct: gene MAPK11
T6 sequence (Q15759 whole entry): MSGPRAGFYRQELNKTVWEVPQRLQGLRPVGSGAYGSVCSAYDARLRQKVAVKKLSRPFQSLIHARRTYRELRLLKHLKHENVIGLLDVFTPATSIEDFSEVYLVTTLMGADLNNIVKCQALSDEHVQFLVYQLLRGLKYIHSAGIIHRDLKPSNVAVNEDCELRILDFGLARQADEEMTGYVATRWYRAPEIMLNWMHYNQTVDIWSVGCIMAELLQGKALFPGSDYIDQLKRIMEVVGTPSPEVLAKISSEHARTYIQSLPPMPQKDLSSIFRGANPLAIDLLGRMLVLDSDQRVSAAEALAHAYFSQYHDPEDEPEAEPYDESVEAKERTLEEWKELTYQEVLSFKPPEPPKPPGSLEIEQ
Procedure, shortened: as §1

PLK3 = PLK3 (Homo sapiens, UniProt Q9H4B4)
Chain of PLK3 (Q9H4B4 whole entry): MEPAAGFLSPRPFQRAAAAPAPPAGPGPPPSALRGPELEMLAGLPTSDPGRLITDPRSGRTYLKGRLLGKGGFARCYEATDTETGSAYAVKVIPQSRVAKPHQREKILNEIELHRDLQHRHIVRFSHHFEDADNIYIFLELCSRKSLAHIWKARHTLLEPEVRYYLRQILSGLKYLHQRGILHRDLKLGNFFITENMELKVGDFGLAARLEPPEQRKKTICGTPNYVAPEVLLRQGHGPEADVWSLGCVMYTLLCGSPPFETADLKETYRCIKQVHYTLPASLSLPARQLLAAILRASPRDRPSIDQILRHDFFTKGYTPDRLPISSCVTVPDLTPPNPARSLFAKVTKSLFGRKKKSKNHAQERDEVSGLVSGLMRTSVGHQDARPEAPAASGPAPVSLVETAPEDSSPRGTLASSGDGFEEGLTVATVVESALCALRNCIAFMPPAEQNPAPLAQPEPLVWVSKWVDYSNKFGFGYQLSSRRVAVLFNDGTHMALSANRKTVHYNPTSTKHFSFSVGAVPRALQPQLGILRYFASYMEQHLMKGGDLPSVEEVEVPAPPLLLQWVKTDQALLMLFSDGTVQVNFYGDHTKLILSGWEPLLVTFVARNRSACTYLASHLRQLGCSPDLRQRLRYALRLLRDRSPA
Procedure, shortened: as §1

[2] = biological target: T7, ABL1(H396P)-nonphosphorylated (Homo sapiens, UniProt P00519, H396P)
T7 construct: nonphosphorylated
Procedure, shortened: as §1

GSK3B = GSK3B (Homo sapiens, UniProt P49841)
Chain of GSK3B (P49841 whole entry): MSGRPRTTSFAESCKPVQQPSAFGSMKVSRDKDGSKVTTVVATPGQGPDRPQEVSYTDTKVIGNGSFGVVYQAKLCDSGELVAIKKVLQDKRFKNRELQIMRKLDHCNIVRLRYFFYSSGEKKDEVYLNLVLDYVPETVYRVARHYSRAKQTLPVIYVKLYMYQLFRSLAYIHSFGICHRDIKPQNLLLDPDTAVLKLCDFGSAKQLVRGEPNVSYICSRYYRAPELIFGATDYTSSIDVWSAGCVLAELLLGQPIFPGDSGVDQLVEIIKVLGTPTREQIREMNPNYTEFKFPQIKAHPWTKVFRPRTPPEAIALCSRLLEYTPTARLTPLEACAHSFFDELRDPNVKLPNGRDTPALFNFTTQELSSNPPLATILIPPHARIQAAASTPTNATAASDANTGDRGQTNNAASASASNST
Procedure, shortened: as §1

RET(V804L) = RET(V804L) (Homo sapiens, UniProt P07949, V804L)
Procedure, shortened: as §1

CSNK2A2 = CSNK2A2 (Homo sapiens, UniProt P19784)
Chain of CSNK2A2 (P19784 whole entry): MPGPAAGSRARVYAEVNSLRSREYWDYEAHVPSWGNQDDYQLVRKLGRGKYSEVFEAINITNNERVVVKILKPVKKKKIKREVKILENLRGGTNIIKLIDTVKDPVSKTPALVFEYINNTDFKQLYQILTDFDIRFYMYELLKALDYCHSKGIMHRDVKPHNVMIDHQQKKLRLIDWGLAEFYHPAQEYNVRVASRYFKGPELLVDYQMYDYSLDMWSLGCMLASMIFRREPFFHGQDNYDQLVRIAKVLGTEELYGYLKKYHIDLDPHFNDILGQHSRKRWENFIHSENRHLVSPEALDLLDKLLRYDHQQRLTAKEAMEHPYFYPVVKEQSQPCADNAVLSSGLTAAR
Procedure, shortened: as §1

PIM2 = PIM2 (Homo sapiens, UniProt Q9P1W9)
Procedure, shortened: as §1

NEK5 = NEK5 (Homo sapiens, UniProt Q6P3R8)
Chain of NEK5 (Q6P3R8 whole entry): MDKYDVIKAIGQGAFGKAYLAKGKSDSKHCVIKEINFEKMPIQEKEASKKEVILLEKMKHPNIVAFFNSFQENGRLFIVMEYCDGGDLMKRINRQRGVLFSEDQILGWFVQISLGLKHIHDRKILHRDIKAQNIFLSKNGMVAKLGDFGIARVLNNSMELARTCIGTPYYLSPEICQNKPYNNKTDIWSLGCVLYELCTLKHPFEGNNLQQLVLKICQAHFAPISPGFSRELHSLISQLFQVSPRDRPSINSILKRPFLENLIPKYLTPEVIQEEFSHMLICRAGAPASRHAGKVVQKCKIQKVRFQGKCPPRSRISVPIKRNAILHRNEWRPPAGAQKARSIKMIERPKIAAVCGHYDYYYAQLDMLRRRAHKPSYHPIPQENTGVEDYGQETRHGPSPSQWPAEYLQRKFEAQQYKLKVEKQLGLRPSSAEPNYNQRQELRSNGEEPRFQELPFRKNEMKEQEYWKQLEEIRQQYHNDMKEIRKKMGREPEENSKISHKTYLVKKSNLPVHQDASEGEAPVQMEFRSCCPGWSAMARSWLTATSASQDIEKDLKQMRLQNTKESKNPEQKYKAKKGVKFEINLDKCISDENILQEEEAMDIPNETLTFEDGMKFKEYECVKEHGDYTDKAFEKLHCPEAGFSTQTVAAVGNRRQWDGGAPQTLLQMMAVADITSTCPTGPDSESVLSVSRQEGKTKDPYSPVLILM
Procedure, shortened: as §1

LIMK2 = LIMK2 (Homo sapiens, UniProt P53671)
Procedure, shortened: as §1

ACVRL1 = ACVRL1 (Homo sapiens, UniProt P37023)
Procedure, shortened: as §1

TNK1 = TNK1 (Homo sapiens, UniProt Q13470)
Procedure, shortened: as §1

## CNS(=O)(=O)c1ccc(N(C)C)c(Nc2nc(C)nc3cc(OC)c(OC)cc23)c1 [compound 15, 3-((6,7-dimethoxy-2-methylquinazolin-4-yl)amino)-4-(dimethylamino)-N-methylbenzenesulfonamide]
PKMYT1
  inhibition at 1 µM: 0%
[1]
  inhibition at 1 µM: 34%
PFTK1
  inhibition at 1 µM: 0%
TRPM6
  inhibition at 1 µM: 6%
IKK-epsilon
  inhibition at 1 µM: 0%
CIT
  inhibition at 1 µM: 4%
WNK1
  inhibition at 1 µM: 22%
DAPK2
  inhibition at 1 µM: 0%
FRK
  inhibition at 1 µM: 0%
CSF1R-autoinhibited
  inhibition at 1 µM: 32%
CDK11
  inhibition at 1 µM: 13%
LZK
  inhibition at 1 µM: 16%
PRKD2
  inhibition at 1 µM: 13%
p38-beta
  inhibition at 1 µM: 0%
PLK3
  inhibition at 1 µM: 8%
[2]
  inhibition at 1 µM: 31%
GSK3B
  inhibition at 1 µM: 17%
RET(V804L)
  inhibition at 1 µM: 0%
CSNK2A2
  inhibition at 1 µM: 14%
PIM2
  inhibition at 1 µM: 0%
NEK5
  inhibition at 1 µM: 0%
LIMK2
  inhibition at 1 µM: 9%
ACVRL1
  inhibition at 1 µM: 0%
TNK1
  inhibition at 1 µM: 35%
